Data: patent US20260365670A1, “EGFR INHIBITORS AND USES THEREOF” (DIZAL (JIANGSU) PHARMACEUTICAL CO., LTD., priority 2022, published 2026)
Where two headings read alike, the source gives them in different places.

Key:
EGFR wild type = target: T1, EGFR wild type (Homo sapiens, UniProt P00533); experiment: Inhibition of EGFR wild type biochemical enzymatic activity (HTRF); settings: EGFR WT, 1 mM ATP, 1 h, room temperature, read-out: IC50 (nM) @WT
T1 construct: purchased Carna Bio
Outline: (§1)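 Read-out is the HTRF 665/615 nm ratio (excitation 320 nm), taken as proportional to kinase activity after a 1 h room-temperature reaction with 1 mM ATP and 1 μM biotinylated TK substrate. IC50 values derive from four-parameter logistic fitting.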

EGFR L858R = target: T2, EGFR L858R (Homo sapiens, UniProt P00533, L858R); experiment: Inhibition of EGFR L858R biochemical enzymatic activity (HTRF); settings: 1 mM ATP
T2 construct: purchased Carna Bio
Outline: as §1

EGFR L858R/T790M = target: T3, EGFR L858R/T790M (Homo sapiens, UniProt P00533, L858R/T790M); experiment: Inhibition of EGFR L858R/T790M biochemical enzymatic activity (HTRF); settings: 1 mM ATP
T3 construct: purchased Carna Bio
Outline: as §1

EGFR Exon19Del = target: T4, EGFR Exon19Del (Homo sapiens, UniProt P00533, DEL746-750); experiment: Inhibition of EGFR Exon19Del biochemical enzymatic activity (HTRF); settings: read-out: IC50 @Del19
T4 construct: purchased Carna Bio
Outline: as §1

EGFR Exon19Del/T790M = target: T5, EGFR Exon19Del/T790M (Homo sapiens, UniProt P00533, DEL746-750/T790M); experiment: Inhibition of EGFR Exon19Del/T790M biochemical enzymatic activity (HTRF); settings: 1 mM ATP
T5 construct: purchased Carna Bio
Outline: as §1

EGFR[T790M/C797S/L858R] = target: T6, EGFR[T790M/C797S/L858R] (Homo sapiens, UniProt P00533, C797S/L858R/T790M); experiment: Inhibition of EGFR[T790M/C797S/L858R] biochemical enzymatic activity (HTRF); settings: 1 mM ATP
T6 construct: purchased Carna Bio
Outline: as §1

[1] = target: T7, EGFR[T790M/C797S/d746-750] (Homo sapiens, UniProt P00533, C797S/DEL746-750/T790M); experiment: Inhibition of EGFR[T790M/C797S/d746-750] biochemical enzymatic activity (HTRF)
T7 construct: purchased Carna Bio
Outline: as §1

EGFR (d746-750 C797S) = target: T8, EGFR (d746-750 C797S) (Homo sapiens, UniProt P00533, C797S/DEL746-750); experiment: Inhibition of EGFR (d746-750 C797S) biochemical enzymatic activity (HTRF); settings: 1 mM ATP
T8 construct: purchased signalchem
Outline: as §1

EGFR (C797S L858R) = target: T9, EGFR (C797S L858R) (Homo sapiens, UniProt P00533, C797S/L858R); experiment: Inhibition of EGFR (C797S L858R) biochemical enzymatic activity (HTRF); settings: 1 mM ATP
T9 construct: purchased signalchem
Outline: as §1

[2] = test system: Ba/F3 cells expressing EGFR mutations; experiment: Cell proliferation assay, Ba/F3 cells expressing EGFR mutations (CellTiter-Glo, 72 hours); assay type: cell-based; settings: Mus musculus, BaF3, 72 h
Outline: (§2)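 Ba/F3 cells (5000/well) and PC-9 cells (500/well, RPMI1640 with 10% FBS) were plated overnight and then dosed with a compound concentration series. Viable cells were read at day 0 (G0) and after treatment (G3). GI50 came from curve fits of G0-corrected proliferation relative to DMSO.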

PC-9 = experiment: Cell proliferation assay, PC-9 cells (CellTiter-Glo, 72 hours); assay type: cell-based; settings: Homo sapiens, PC-9, 72 h, PC9 cells
Outline: as §2

A-431 [3] = experiment: Cell proliferation GI50, A-431 cells (Table 6); assay type: cell-based; settings: Homo sapiens, A-431, A-431 cells
A-431 [4] = experiment: Cell proliferation assay, A-431 cells (GI50, Table 6); assay type: cell-based; settings: Homo sapiens, A-431, A-431 cells
Method: [Worded in the source for another cell line; this cell line is reported under the same test.] Ba/F3 cells expressing EGFR mutations were seeded in 384-well plates at 5000 cells/well in RPMI1640 medium containing […]. PC-9 at 500 cells/well was seeded into 384-well plates in RPMI1640 medium with 10% FBS. After overnight incubation, the assay plates were dosed with compounds at a series of concentrations. Alongside dosing the assay plates, the day 0 plate was processed using CellTiter-Glo® Luminescent Cell Viability Assay (Promega) to measure the number of viable cells (G0). The assay plates were further incubated for 72 hours and the number of viable cells (G3) was measured. The percentage of proliferation was calculated as: […]=100×(G3 value of sample well−G0 value)/(G3 value of DMSO control−G0 value). The concentration of compound producing 50% proliferation inhibition (GI50) was further calculated in best-fit curves using XLFit software. N/A=not available.

[5] = 1 h, room temperature, read-out: IC50 (nM) @L858R
[6] = EGFR L858R-T790M, 1 h, room temperature, read-out: IC50 (nM) @L858R-T790M
[7] = EGFR Del19, 1 mM ATP, 1 h, room temperature
[8] = EGFR Del19-T790M, 1 h, room temperature, read-out: IC50 (nM) @Del19-T790M
[9] = EGFR T790M-C797S-L858R, 1 h, room temperature, read-out: IC50 (nM) @T790M- C797S - L858R
[10] = EGFR T790M-C797S-Del19, 1 mM ATP, 1 h, room temperature, read-out: IC50 (nM) @T790M - C797S - Del19
[11] = EGFR Del19-C797S, 1 h, room temperature, read-out: IC50 (nM) @Del19-C797S
[12] = EGFR L858-C797S, 1 h, room temperature, read-out: IC50 (nM) @L858-C797S
[13] = BaF3 cells, EGFR DEL19-C797S, CellTiter-Glo, read-out: DEL19-C797S/BaF3 GI50
[14] = BaF3 cells, EGFR DEL19-T790-C797S, CellTiter-Glo, read-out: DEL19-T790-C797S/BaF3 GI50
[15] = BaF3 cells, EGFR L858R, CellTiter-Glo, read-out: L858R/BaF3 GI50
[16] = BaF3 cells, EGFR L858R-C797S, CellTiter-Glo, read-out: L858R-C797S/BaF3 GI50
[17] = BaF3 cells, EGFR L858R-T790-C797S, CellTiter-Glo, read-out: L858R-T790-C797S/BaF3 GI50
[18] = BaF3 cells, EGFR L858R-T790M, CellTiter-Glo, read-out: L858R-T790M/BaF3 GI50
[19] = EGFR DEL19-T790M, CellTiter-Glo, read-out: DEL19-T790M GI50
[20] = CellTiter-Glo, read-out: PC9 GI50

T9 sequence (P00533 25-1210 C797S/L858R): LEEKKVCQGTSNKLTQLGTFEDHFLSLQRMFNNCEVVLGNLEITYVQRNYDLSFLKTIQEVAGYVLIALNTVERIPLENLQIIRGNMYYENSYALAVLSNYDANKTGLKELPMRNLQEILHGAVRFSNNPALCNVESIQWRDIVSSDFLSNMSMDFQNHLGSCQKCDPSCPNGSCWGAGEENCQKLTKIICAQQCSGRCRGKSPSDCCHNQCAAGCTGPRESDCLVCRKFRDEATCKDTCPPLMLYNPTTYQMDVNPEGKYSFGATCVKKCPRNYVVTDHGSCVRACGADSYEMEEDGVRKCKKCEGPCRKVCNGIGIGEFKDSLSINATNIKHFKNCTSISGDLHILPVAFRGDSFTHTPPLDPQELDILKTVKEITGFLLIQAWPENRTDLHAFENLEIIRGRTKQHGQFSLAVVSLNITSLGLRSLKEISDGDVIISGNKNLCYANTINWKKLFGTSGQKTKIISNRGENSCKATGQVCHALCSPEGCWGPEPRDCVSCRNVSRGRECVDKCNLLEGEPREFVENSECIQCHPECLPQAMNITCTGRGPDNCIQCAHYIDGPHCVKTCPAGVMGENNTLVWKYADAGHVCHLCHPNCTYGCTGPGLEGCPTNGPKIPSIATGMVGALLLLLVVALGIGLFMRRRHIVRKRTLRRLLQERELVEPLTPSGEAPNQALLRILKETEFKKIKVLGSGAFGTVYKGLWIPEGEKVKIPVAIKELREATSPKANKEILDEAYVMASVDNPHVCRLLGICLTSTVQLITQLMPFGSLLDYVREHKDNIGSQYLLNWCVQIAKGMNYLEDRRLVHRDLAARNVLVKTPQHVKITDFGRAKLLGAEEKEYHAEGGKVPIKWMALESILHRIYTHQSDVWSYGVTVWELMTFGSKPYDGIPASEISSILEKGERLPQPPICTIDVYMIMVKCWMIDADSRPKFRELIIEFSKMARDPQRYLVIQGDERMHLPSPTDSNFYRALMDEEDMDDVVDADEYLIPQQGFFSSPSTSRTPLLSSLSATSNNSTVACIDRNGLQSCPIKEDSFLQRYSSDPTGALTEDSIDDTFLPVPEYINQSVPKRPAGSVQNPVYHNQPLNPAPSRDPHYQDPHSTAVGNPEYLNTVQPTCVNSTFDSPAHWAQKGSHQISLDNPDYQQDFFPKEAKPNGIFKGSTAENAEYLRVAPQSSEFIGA
T1 sequence (P00533 25-1210): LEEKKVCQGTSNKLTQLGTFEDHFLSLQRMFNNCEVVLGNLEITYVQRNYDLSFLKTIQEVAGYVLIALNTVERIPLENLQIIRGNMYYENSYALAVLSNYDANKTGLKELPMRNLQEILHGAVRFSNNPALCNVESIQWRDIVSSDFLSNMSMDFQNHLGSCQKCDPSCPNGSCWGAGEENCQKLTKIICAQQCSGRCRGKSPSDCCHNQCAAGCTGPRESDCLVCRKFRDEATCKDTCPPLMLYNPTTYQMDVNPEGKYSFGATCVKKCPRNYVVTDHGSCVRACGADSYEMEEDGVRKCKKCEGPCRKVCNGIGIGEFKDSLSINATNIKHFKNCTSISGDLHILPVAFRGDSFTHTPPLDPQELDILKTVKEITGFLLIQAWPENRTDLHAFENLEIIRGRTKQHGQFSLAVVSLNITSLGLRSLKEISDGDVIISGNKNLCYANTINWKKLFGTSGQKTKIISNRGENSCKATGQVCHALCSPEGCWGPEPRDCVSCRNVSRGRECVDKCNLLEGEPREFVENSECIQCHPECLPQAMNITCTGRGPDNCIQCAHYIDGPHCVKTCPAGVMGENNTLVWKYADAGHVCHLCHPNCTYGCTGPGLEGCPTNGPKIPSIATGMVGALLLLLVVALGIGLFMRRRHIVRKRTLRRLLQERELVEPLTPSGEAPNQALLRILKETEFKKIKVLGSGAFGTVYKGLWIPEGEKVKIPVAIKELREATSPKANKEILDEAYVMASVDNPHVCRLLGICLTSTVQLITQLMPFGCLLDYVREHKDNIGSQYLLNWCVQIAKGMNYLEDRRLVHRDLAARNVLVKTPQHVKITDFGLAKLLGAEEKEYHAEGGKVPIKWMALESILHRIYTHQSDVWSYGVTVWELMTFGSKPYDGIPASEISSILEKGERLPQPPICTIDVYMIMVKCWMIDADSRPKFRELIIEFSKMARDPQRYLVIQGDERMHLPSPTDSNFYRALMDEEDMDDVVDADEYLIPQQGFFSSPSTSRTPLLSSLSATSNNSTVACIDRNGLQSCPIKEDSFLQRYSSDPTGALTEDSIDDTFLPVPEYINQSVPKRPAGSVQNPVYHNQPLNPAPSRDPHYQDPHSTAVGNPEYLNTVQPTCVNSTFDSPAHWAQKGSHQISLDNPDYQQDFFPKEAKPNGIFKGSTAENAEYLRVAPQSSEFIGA
T2 sequence (P00533 25-1210 L858R): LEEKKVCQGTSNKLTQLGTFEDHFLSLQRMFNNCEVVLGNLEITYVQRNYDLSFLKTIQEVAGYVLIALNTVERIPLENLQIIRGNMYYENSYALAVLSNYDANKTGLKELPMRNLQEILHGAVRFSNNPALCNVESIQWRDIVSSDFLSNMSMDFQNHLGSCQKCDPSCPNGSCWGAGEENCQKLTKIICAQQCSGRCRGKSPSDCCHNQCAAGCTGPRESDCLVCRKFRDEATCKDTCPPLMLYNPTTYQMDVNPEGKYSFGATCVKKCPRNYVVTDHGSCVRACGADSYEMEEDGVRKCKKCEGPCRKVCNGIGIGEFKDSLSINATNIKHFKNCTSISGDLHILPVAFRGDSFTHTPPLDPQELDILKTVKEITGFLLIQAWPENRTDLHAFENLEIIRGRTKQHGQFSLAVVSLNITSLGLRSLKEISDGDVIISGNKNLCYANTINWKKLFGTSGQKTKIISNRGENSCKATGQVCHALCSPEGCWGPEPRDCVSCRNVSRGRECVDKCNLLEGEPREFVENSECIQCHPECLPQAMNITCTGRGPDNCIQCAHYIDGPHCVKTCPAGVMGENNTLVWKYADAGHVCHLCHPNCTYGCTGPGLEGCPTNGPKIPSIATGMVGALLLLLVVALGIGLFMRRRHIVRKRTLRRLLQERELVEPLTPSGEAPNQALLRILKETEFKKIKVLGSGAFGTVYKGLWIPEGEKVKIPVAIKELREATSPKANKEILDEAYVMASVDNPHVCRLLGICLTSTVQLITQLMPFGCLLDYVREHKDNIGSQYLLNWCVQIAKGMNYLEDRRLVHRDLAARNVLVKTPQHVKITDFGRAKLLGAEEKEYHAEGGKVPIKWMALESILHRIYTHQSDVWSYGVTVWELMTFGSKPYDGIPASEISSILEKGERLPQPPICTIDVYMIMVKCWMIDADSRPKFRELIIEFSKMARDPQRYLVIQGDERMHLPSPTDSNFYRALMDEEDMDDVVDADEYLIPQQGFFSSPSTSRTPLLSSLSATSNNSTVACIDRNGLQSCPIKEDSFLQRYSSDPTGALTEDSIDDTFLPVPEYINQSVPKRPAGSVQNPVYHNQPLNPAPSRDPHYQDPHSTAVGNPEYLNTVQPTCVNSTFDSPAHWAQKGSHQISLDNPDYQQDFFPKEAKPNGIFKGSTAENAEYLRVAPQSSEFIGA
T3 sequence (P00533 25-1210 T790M/L858R): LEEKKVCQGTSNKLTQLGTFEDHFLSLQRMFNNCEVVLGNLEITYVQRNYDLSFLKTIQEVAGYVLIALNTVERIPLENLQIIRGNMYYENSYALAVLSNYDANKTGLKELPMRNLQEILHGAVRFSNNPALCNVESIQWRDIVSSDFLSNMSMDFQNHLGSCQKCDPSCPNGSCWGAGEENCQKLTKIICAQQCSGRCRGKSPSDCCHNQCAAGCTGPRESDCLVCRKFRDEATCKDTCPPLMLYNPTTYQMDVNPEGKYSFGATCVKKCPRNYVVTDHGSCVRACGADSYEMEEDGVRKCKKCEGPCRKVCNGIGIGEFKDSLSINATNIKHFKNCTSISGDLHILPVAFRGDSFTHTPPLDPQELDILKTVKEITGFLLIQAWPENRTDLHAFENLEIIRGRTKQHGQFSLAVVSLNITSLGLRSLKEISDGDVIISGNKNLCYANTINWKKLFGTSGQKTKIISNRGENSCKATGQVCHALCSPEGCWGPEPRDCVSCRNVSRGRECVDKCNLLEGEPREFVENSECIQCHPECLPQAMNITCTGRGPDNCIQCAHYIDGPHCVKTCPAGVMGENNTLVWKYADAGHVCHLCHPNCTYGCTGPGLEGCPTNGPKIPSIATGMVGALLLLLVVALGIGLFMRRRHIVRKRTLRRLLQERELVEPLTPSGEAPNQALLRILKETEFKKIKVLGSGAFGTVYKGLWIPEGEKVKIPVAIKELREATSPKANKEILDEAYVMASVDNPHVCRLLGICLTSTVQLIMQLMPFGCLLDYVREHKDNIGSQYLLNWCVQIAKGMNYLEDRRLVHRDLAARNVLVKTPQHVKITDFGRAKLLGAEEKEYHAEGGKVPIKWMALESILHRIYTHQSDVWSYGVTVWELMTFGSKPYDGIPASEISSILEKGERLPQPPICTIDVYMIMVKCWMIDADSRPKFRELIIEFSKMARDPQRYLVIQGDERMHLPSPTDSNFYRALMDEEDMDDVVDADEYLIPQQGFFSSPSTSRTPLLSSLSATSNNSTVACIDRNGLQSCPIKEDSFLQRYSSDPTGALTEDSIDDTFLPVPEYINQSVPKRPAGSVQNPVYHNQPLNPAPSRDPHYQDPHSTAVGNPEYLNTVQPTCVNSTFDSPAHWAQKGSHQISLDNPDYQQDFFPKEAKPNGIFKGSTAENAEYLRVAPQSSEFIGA

Structure (SMILES)	IC50 (EGFR wild type)	IC50 (EGFR L858R; [5])	IC50 (EGFR L858R/T790M; [6])	IC50 (EGFR Exon19Del; [7])	IC50 (EGFR Exon19Del/T790M; [8])	IC50 (EGFR[T790M/C797S/L858R]; [9])	IC50 [1, 10]	IC50 (EGFR (d746-750 C797S); [11])	IC50 (EGFR (C797S L858R); [12])	GI50 [2, 13]	GI50 [2, 14]	GI50 [2, 15]	GI50 [2, 16]	GI50 [2, 17]	GI50 [2, 18]	GI50 [2, 19]	GI50 (PC-9; [20])	GI50 (A-431 [3])	also measured
C[C@@H]1CCCOc2c(cnn2C)-c2cc(cn(C)c2=O)C(=O)Nc2nc3ccc4c(c3n2C1)CCNC4 [Example A102, (11R)-5,11,30-Trimethyl-7-oxa-4,5,13,18,24,26,30-heptaazahexacyclo[26.3.1.0^{2,6}.0^{13,25}.0^{14,23}.0^{15,20}]dotriaconta-1(32),2(6),3,14,20,22,24,28-octaene-27,31-dione]	> 5000 nM	414 nM	195 nM	18 nM	5.7 nM	32 nM	3.4 nM	12 nM	167 nM	12 nM	31 nM	79 nM	61 nM	37 nM	307 nM	59 nM	115 nM	2910 nM	
C[C@@H]1CCCOc2c(cnn2C)-c2cc(cn(C)c2=O)C(=O)Nc2nc3ccc4c(c3n2C1)CCN(C)C4 [Example A103, (11R)-5,11,18,30-tetramethyl-7-oxa-4,5,13,18,24,26,30-heptaazahexacyclo[26.3.1.0^{2,6}.0^{13,25}.0^{14,23}.0^{15,20}]dotriaconta-1(32),2(6),3,14,20,22,24,28-octaene-27,31-dione]	> 5000 nM	168 nM	65 nM	7.4 nM	1.8 nM	20 nM	1.3 nM	5.4 nM	68 nM	2.7 nM	7 nM	26 nM	17 nM	10 nM	72 nM	18 nM	32 nM	1680 nM	
Cc1cc2cc(n1)-c1cnn(C)c1OCCN1CC3CCC(CC3)(C1)n1c(nc3ccc(N4CCC5(CCN(C)CC5)C4)cc31)NC2=O [Example B31]																			IC50 (EGFR L858R; 1 h at room temperature, read-out: IC50 @L858R): 244 nM; IC50 (EGFR L858R/T790M; EGFR L858R/T790M, 1 h at room temperature, read-out: IC50 @L858R-T790M): 20 nM; IC50 (EGFR Exon19Del; EGFR Exon19Del, 1 mM ATP, 1 h at room temperature): 19 nM; IC50 (EGFR Exon19Del/T790M; EGFR Exon19Del/T790M, 1 h at room temperature, read-out: IC50 @Del19-T790M): 11 nM; IC50 (EGFR[T790M/C797S/L858R]; EGFR[T790M/C797S/L858R], 1 h at room temperature, read-out: IC50 @T790M- C797S - L858R): 8.2 nM; IC50 ([1]; EGFR[T790M/C797S/d746-750], 1 mM ATP, 1 h at room temperature, read-out: IC50 @T790M - C797S - Del19): 7.3 nM; IC50 (EGFR (d746-750 C797S); EGFR (d746-750 C797S), 1 h at room temperature, read-out: IC50 @Del19-C797S): 15 nM; IC50 (EGFR (C797S L858R); EGFR (C797S L858R), 1 h at room temperature, read-out: IC50 @L858-C797S): 113 nM; GI50 ([2]; BaF3 cells, EGFR DEL19 - C797S, read-out: GI50 DEL19 - C797S/BaF3): 24 nM; GI50 ([2]; BaF3 cells, EGFR DEL19 - T790-C797S, read-out: GI50 DEL19 - T790-C797S/BaF3): 10 nM; GI50 ([2]; BaF3 cells, EGFR L858R - C797S, read-out: GI50 L858R - C797S/BaF3): 127 nM; GI50 ([2]; BaF3 cells, EGFR L858R - T790-C797S, read-out: GI50 L858R - T790-C797S/BaF3): 19 nM; GI50 ([2]; BaF3 cells, EGFR L858R - T790M, read-out: GI50 L858R - T790M/BaF3): 38 nM; GI50 ([2]; BaF3 cells, EGFR L858R, read-out: GI50 L858R/BaF3): 81 nM; GI50 ([2]; EGFR DEL19 - T790M, read-out: GI50 DEL19 - T790M): 10 nM; GI50 (PC-9; read-out: GI50 PC9): 103 nM; GI50 (A-431 [4]): 1680 nM
C[C@@H]1CCCOc2c(cnn2C)-c2cc(cn(C)c2=O)C(=O)Nc2nc3ccc(Br)cc3n2C1 [Example M3, (11R)-16-Bromo-5,11,26-trimethyl-7-oxa-4,5,13,20,22,26-hexaazapentacyclo[22.3.1.0^{2,6}.0^{13,21}.0^{14,19}]octacosa-1(28),2(6),3,14,16,18,20,24-octaene-23,27-dione]	> 5000 nM	2460 nM	2190 nM	204 nM	27 nM	2470 nM	19 nM	60 nM	1700 nM	89 nM	364 nM	257 nM	344 nM	159 nM	982 nM	300 nM	252 nM	1950 nM	
